Measurements as given in ChEMBL document CHEMBL1275542, “Characterization of TolC efflux pump proteins from Pasteurella multocida” (2008).
Values after ≈ are worked out from the molar mass of the structure shown.

How the values were obtained:
Assay type in all cases: functional
[1] = system: Pasteurella multocida; experiment: Antibacterial activity against Pasteurella multocida AL435 after 24 hrs by broth dilution method
[2] = system: Pasteurella multocida; experiment: Antibacterial activity against TolC deficient Pasteurella multocida pm0527 after 24 hrs by broth dilution method
[3] = system: Pasteurella multocida; experiment: Antibacterial activity against Pasteurella multocida pm0527 after 24 hrs by broth dilution method
[4] = system: Pasteurella multocida; experiment: Ratio of MIC for Pasteurella multocida AL435 to MIC for TolC deficient Pasteurella multocida pm0527
[5] = system: Pasteurella multocida; experiment: Antibacterial activity against TolC deficient Pasteurella multocida pm1980 after 24 hrs by broth dilution method
[6] = system: Pasteurella multocida; experiment: Antibacterial activity against Pasteurella multocida pm1980 after 24 hrs by broth dilution method
[7] = system: Pasteurella multocida; experiment: Ratio of MIC for Pasteurella multocida AL435 to MIC for TolC deficient Pasteurella multocida pm1980

Row | Compound | MIC ([1]; AL435, 24 h) [µg/mL] | MIC ([2]; pm0527, 24 h) [µg/mL] | MIC ([3]; pm0527, 24 h) [µg/mL] | Ratio [4] | MIC ([5]; pm1980, 24 h) [µg/mL] | MIC ([6]; pm1980, 24 h) [µg/mL] | Ratio [7] | MIC [1] [µg/mL] | MIC [2] [µg/mL] | MIC [3] [µg/mL] | MIC [5] [µg/mL] | MIC [6] [µg/mL]
1 | CC[C@H]1OC(=O)[C@H](C)[C@@H](O[C@H]2C[C@@](C)(OC)[C@@H](O)[C@H](C)O2)[C@H](C)[C@@H](O[C@@H]2O[C@H](C)C[C@H](N(C)C)[C@H]2O)[C@](C)(O)C[C@@H](C)C(=O)[C@H](C)[C@@H](O)[C@]1(C)O [ERYTHROMYCIN] | 3.8 (≈ 5.18 µM) | 0.47 (≈ 0.64 µM) | 1.88 (≈ 2.56 µM) | 8 | 1.88 (≈ 2.56 µM) | 1.88 (≈ 2.56 µM) | 2 | – | – | – | – | –
2 | GENTAMICIN | – | – | – | 4 | – | – | 0.5 | 20 | 5 | 20 | 40 | 40
3 | SPIRAMYCIN | – | – | – | 2 | – | – | 1 | 25 | 12.5 | 25 | 25 | 25
4 | CO[C@@H]1[C@@H](OC(N)=O)[C@@H](O)[C@H](Oc2ccc3c(O)c(NC(=O)c4ccc(O)c(CC=C(C)C)c4)c(=O)oc3c2C)OC1(C)C [NOVOBIOCIN] | 40 (≈ 65.3 µM) | 2.5 (≈ 4.08 µM) | 40 (≈ 65.3 µM) | 16 | 20 (≈ 32.6 µM) | 40 (≈ 65.3 µM) | 2 | – | – | – | – | –
5 | CCCCc1ccc(C(=O)O)nc1 [FUSARIC ACID] | 100 (≈ 558 µM) | 50 (≈ 279 µM) | 50 (≈ 279 µM) | 2 | 50 (≈ 279 µM) | 100 (≈ 558 µM) | 2 | – | – | – | – | –
6 | Nc1ccc(S(=O)(=O)Nc2nccs2)cc1 [SULFATHIAZOLE] | 2500 (≈ 9790 µM) | 625 (≈ 2450 µM) | 1250 (≈ 4900 µM) | 4 | 2500 (≈ 9790 µM) | 2500 (≈ 9790 µM) | 1 | – | – | – | – | –
7 | O[C@@H](CS)[C@@H](O)CS [DITHIOTHREITOL] | 4000 (≈ 25900 µM) | 2000 (≈ 13000 µM) | 2000 (≈ 13000 µM) | 2 | 2000 (≈ 13000 µM) | 4000 (≈ 25900 µM) | 2 | – | – | – | – | –
8 | NEOMYCIN SULFATE | – | – | – | 1 | – | – | 0.125 | 125 | 125 | 125 | 1000 | 500
9 | C[C@@H]1C[C@@H]([C@H](O)CC2CC(=O)NC(=O)C2)C(=O)[C@@H](C)C1 [CYCLOHEXIMIDE] | 500 (≈ 1780 µM) | 250 (≈ 889 µM) | 500 (≈ 1780 µM) | 2 | 500 (≈ 1780 µM) | 500 (≈ 1780 µM) | 1 | – | – | – | – | –
10 | CO[C@H]1/C=C/O[C@@]2(C)Oc3c(C)c(O)c4c(O)c(c(/C=N/N5CCN(C)CC5)c(O)c4c3C2=O)NC(=O)/C(C)=C\C=C\[C@H](C)[C@H](O)[C@@H](C)[C@@H](O)[C@@H](C)[C@H](OC(C)=O)[C@@H]1C [RIFAMPIN] | 50 (≈ 60.8 µM) | 0.1 (≈ 0.122 µM) | 0.2 (≈ 0.243 µM) | 512 | 0.78 (≈ 0.948 µM) | 0.78 (≈ 0.948 µM) | 64 | – | – | – | – | –
11 | O=C(N[C@H](CO)[C@H](O)c1ccc([N+](=O)[O-])cc1)C(Cl)Cl [CHLORAMPHENICOL] | 1 (≈ 3.09 µM) | 0.5 (≈ 1.55 µM) | 1 (≈ 3.09 µM) | 2 | 1 (≈ 3.09 µM) | 1 (≈ 3.09 µM) | 1 | – | – | – | – | –
